According to PMC6213879, “Synthesis and Biological Evaluation of Novel Dehydroabietic Acid-Oxazolidinone Hybrids for Antitumor Properties” (International Journal of Molecular Sciences, 2018):

Legend:
[1] = system: NCI-H460 human lung cancer cell line; assay: MTT cytotoxicity assay, NCI-H460; type: cell-based; details: mean ± SD from three independent experiments
Description: (§1) The in vitro antiproliferative activity of the DHAA derivatives 3a–o and 4a–o against four human cancer cell lines (MGC-803 human gastric cancer cell line, CNE-2 human nasopharyngeal carcinoma cell line, SK-OV-3 human ovarian carcinoma cell line, NCI-H460 human lung cancer cell line) and the human normal liver cell line LO2 were evaluated by MTT (methyl thiazolytetrazolium) assay and compared with the parent compound DHAA and the positive control cisplatin in each panel.
(§2) The cytotoxicity of the compounds was evaluated against NCI-H460, MGC-803, SK-OV-3, CNE-2 and LO2 using an MTT assay. Cells were grown on 96-well micro-plates at a density of 4 × 10^3 cells per well in DMEM (dulbecco’s modified eagle medium) medium with 10% FBS (fetal bovine serum). The plates were incubated at 37 °C with 5% CO2. The cells were then exposed to different concentrations of target compounds and cisplatin and incubated for another 48 h. Control wells were formed by culture media with the maximum concentration of DMSO used in each assay (1‰). The cells were stained with 20 µL of MTT in an incubator for about 4 h. The medium was thrown away and replaced by […] DMSO. The absorbance (OD) value was read at 490 nm on an enzyme labeling instrument. Each experiment was repeated at least three times to obtain the mean values.

[2] = system: human normal liver cell line LO2; assay: MTT cytotoxicity assay, normal LO2 cells; type: cell-based; details: mean ± SD from three independent experiments
Description: as §1, §2

[3] = system: CNE-2 human nasopharyngeal carcinoma cell line; assay: MTT cytotoxicity assay, CNE-2; type: cell-based; details: mean ± SD from three independent experiments
Description: as §1, §2

[4] = system: MGC-803 human gastric cancer cell line; assay: MTT cytotoxicity assay, MGC-803; type: cell-based; details: mean ± SD from three independent experiments
Description: as §1, §2

[5] = system: SK-OV-3 human ovarian carcinoma cell line; assay: MTT cytotoxicity assay, SK-OV-3; type: cell-based; details: mean ± SD from three independent experiments
Description: as §1, §2

SMILES | IC50 ([1]; Homo sapiens, NCI-H460, 48 h) [µM] | IC50 ([2]; Homo sapiens, L02, 48 h) [µM] | IC50 ([3]; Homo sapiens, CNE-2, 48 h) [µM] | IC50 ([4]; Homo sapiens, MGC-803, 48 h) [µM] | melting point [°C] | IC50 ([5]; Homo sapiens, SK-OV-3, 48 h) [µM] | IC50 ([1]; 48 h) [µM] | IC50 ([2]; 48 h) [µM] | IC50 ([3]; 48 h) [µM] | IC50 ([4]; 48 h) [µM] | IC50 ([5]; 48 h) [µM]
CC(C)c1ccc2c(c1)CCC1[C@](C)(C(=O)OCC3CN(c4ccc(Cl)cc4)C(=O)O3)CCC[C@]21C (stereo partly drawn) [Compound 4l, (1R,4aS)-(3-(4-Chlorophenyl)-2-Oxooxazolidin-5-yl)Methyl-7-Isopropyl-1,4a-Dimethyl-1,2,3,4,4a,9,10,10a-Octahydrophenanthrene-1-Carboxylate] | 26.55 ± 0.08 | 44.5 ± 2.77 | 27.6 ± 1.5 | 5.82 ± 4.82 | 170.6 to 172.5 | 15.7 ± 2.32 | – | – | – | – | –
CC(C)c1ccc2c(c1)CCC1[C@](C)(C(=O)OCC3CN(c4cccc(Br)c4)C(=O)O3)CCC[C@]21C (stereo partly drawn) [Compound 4m, (1R,4aS)-(3-(3-Bromophenyl)-2-Oxooxazolidin-5-yl)Methyl-7-Isopropyl-1,4a-Dimethyl-1,2,3,4,4a,9,10,10a-Octahydrophenanthrene-1-Carboxylate] | 25.1 ± 1.39 | 34.2 ± 2.88 | > 100 | 9.8 ± 2.37 | – | > 100 | – | – | – | – | –
CC(C)c1ccc2c(c1)CCC1[C@](C)(C(=O)OCC3CN(c4ccc(Br)cc4)C(=O)O3)CCC[C@]21C (stereo partly drawn) [Compound 4n, (1R,4aS)-(3-(4-Bromophenyl)-2-Oxooxazolidin-5-yl)Methyl-7-Isopropyl-1,4a-Dimethyl-1,2,3,4,4a,9,10,10a-Octahydrophenanthrene-1-Carboxylate] | 30.2 ± 2.66 | > 100 | 42.5 ± 5.68 | 5.34 ± 3.45 | – | > 100 | – | – | – | – | –
C#Cc1cccc(N2CC(COC(=O)[C@]3(C)CCC[C@]4(C)c5ccc(C(C)C)cc5CCC34)OC2=O)c1 (stereo partly drawn) [Compound 4o, (1R,4aS)-(3-(3-Ehynylphenyl)-2-Oxooxazolidin-5-yl)Methyl-7-Isopropyl-1,4a-Dimethyl-1,2,3,4,4a,9,10,10a-Octahydrophenanthrene-1-Carboxylate] | 72.4 ± 1.07 | > 100 | 51.4 ± 5.06 | 18.2 ± 2.36 | 125.2 to 130.4 | 23.7 ± 2.02 | – | – | – | – | –
CC(C)c1ccc2c(c1)CC[C@H]1[C@](C)(C(=O)O)CCC[C@]21C [DHA, Dehydroabietic acid] | > 100 | > 100 | 62.6 ± 1.6 | 29.8 ± 2.06 | – | > 100 | – | – | – | – | –
N.N.[Cl][Pt][Cl] [cisplatin, reference compound] | – | – | – | – | – | – | 24.1 ± 1.74 | 36.4 ± 0.79 | 21 ± 2.25 | 14.9 ± 1.78 | 10.4 ± 0.25
